Experimental data reported in paper PMC7468908 (Nutrients, 2020).
Where two headings read alike, the source gives them in different places.

Legend:
Assay type in all cases: biochemical
BCRP [1] = biological target: T1, BCRP (Homo sapiens, UniProt Q9UNQ0); assay: BCRP vesicular transport of lucifer yellow in Sf9 membrane vesicles; settings: for concentration inducing statistically significant (p < 0.01) decrease in transport of LY by BCRP: 10 μM lucifer yellow; for IC50: vesicular uptake of 10 μM lucifer yellow
T1 construct: made in house; host or cells: Sf9 insect cells (baculovirus)
T1 sequence (Q9UNQ0 1-655): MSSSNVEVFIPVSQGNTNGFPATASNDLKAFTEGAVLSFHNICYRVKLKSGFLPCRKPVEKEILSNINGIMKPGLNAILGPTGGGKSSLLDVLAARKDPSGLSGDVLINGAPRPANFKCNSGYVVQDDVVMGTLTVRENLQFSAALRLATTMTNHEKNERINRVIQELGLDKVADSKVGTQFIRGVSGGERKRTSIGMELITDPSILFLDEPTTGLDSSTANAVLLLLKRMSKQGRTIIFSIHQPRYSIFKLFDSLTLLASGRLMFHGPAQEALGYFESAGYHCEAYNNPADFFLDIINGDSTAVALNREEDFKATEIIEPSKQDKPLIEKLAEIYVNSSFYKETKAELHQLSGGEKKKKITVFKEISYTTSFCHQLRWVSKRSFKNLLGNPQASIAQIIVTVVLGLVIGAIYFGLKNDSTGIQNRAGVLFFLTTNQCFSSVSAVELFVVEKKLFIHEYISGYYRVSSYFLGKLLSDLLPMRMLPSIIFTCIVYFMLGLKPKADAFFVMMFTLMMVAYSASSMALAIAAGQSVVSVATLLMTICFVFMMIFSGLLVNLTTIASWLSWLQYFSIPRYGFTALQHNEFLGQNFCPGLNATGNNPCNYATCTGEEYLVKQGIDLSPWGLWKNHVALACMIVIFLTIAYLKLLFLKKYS
Procedure: Experiments were performed in insect membrane vesicles, as describe previously. Human BCRP and MRP2 were expressed in Sf9 insect cells by baculoviruses. At the third day of infection, cells were collected and membrane vesicles were obtained by mechanical disruption and differential centrifugation. To get full activity for BCRP, the cholesterol levels of the vesicles were adjusted to the level of mammalian membranes. Vesicles were stored at -80°C, total protein content of preparations was measured by the Lowry method (used as a reference of the quantity). Membrane vesicles (50 μg protein/sample) were incubated at 37 °C for 10 min (without or with 4 mM of Mg-ATP) in 50 μL volume, in the presence of transporter specific fluorescent substrates (10 μM lucifer yellow (LY) for BCRP and 5 μM 5(6)-Carboxy-2′,7′-dichlorofluorescein (CDCF) for MRP2). […] ATP dependent uptake of fluorescent substrates was examined in the presence of flavonoids (up to 50–200 μM). Each compound was dissolved in DMSO and solvent controls were applied in all experiments. […] After incubation, samples were rapidly filtered and washed on filter plate (MSFBN6B10, Millipore, Burlington, MA, USA). Accumulated substrates in vesicles were solved back from the filter by 100 μL of 10% sodium dodecyl sulfate and centrifuged into another plate. A 100-μL volume of fluorescence stabilizer was added to the samples (DMSO for LY, and 0.1 M NaOH for CDCF). Fluorescence of samples was measured by a plate reader (Victor X3 Perkin-Elmer, Waltham, MA, USA) at appropriate wavelengths (filters were λex = 405 nm and λem = 535 nm for LY as well as λex = 492 nm and λem = 635 nm for CDCF).

MRP2 = biological target: T2, MRP2 (Homo sapiens, UniProt Q92887); assay: MRP2 vesicular transport of CDCF in Sf9 membrane vesicles
T2 construct: made in house; host or cells: Sf9 insect cells (baculovirus)
Procedure: Experiments were performed in insect membrane vesicles, as describe previously. Human BCRP and MRP2 were expressed in Sf9 insect cells by baculoviruses. At the third day of infection, cells were collected and membrane vesicles were obtained by mechanical disruption and differential centrifugation. To get full activity for BCRP, the cholesterol levels of the vesicles were adjusted to the level of mammalian membranes. Vesicles were stored at -80°C, total protein content of preparations was measured by the Lowry method (used as a reference of the quantity). Membrane vesicles (50 μg protein/sample) were incubated at 37 °C for 10 min (without or with 4 mM of Mg-ATP) in 50 μL volume, in the presence of transporter specific fluorescent substrates (10 μM lucifer yellow (LY) for BCRP and 5 μM 5(6)-Carboxy-2′,7′-dichlorofluorescein (CDCF) for MRP2). Quality of membrane vesicles was confirmed applying known reference inhibitors (benzbromarone and Ko143). ATP dependent uptake of fluorescent substrates was examined in the presence of flavonoids (up to 50–200 μM). Each compound was dissolved in DMSO and solvent controls were applied in all experiments. […] After incubation, samples were rapidly filtered and washed on filter plate (MSFBN6B10, Millipore, Burlington, MA, USA). Accumulated substrates in vesicles were solved back from the filter by 100 μL of 10% sodium dodecyl sulfate and centrifuged into another plate. A 100-μL volume of fluorescence stabilizer was added to the samples (DMSO for LY, and 0.1 M NaOH for CDCF). Fluorescence of samples was measured by a plate reader (Victor X3 Perkin-Elmer, Waltham, MA, USA) at appropriate wavelengths (filters were λex = 405 nm and λem = 535 nm for LY as well as λex = 492 nm and λem = 635 nm for CDCF). ABC related transport was calculated by subtracting passive uptake measured without Mg-ATP (with Mg-AMP the same background was detected) from values measured in the presence of Mg-ATP.

BCRP [2] = biological target: T1, BCRP; assay: BCRP vanadate sensitive ATPase activity in Sf9 membrane vesicles; settings: 3 mM Mg-ATP, 25 min, 37 °C
Procedure: ATPase activity was measured on Sf9 membrane vesicles containing human BCRP prepared as described in 2.5. Appropriate amounts of vesicles (10 μg/50 μL) were used in the assays. Experimental parameters were the same as it has been earlier reported. Membrane vesicles were incubated with 3 mM of Mg-ATP for 25 min at 37 °C. Effects of flavonoids were investigated up to 50 μM. […] ABC transporter function was determined as vanadate sensitive ATPase activity. Liberated inorganic phosphate was measured by a colorimetric reaction as described. Absorbance of samples was measured after 25 min at 660 nm.

[3] = vesicular uptake of 5 μM CDCF, read-out: IC50 for MRP2

T2 sequence (Q92887 whole entry): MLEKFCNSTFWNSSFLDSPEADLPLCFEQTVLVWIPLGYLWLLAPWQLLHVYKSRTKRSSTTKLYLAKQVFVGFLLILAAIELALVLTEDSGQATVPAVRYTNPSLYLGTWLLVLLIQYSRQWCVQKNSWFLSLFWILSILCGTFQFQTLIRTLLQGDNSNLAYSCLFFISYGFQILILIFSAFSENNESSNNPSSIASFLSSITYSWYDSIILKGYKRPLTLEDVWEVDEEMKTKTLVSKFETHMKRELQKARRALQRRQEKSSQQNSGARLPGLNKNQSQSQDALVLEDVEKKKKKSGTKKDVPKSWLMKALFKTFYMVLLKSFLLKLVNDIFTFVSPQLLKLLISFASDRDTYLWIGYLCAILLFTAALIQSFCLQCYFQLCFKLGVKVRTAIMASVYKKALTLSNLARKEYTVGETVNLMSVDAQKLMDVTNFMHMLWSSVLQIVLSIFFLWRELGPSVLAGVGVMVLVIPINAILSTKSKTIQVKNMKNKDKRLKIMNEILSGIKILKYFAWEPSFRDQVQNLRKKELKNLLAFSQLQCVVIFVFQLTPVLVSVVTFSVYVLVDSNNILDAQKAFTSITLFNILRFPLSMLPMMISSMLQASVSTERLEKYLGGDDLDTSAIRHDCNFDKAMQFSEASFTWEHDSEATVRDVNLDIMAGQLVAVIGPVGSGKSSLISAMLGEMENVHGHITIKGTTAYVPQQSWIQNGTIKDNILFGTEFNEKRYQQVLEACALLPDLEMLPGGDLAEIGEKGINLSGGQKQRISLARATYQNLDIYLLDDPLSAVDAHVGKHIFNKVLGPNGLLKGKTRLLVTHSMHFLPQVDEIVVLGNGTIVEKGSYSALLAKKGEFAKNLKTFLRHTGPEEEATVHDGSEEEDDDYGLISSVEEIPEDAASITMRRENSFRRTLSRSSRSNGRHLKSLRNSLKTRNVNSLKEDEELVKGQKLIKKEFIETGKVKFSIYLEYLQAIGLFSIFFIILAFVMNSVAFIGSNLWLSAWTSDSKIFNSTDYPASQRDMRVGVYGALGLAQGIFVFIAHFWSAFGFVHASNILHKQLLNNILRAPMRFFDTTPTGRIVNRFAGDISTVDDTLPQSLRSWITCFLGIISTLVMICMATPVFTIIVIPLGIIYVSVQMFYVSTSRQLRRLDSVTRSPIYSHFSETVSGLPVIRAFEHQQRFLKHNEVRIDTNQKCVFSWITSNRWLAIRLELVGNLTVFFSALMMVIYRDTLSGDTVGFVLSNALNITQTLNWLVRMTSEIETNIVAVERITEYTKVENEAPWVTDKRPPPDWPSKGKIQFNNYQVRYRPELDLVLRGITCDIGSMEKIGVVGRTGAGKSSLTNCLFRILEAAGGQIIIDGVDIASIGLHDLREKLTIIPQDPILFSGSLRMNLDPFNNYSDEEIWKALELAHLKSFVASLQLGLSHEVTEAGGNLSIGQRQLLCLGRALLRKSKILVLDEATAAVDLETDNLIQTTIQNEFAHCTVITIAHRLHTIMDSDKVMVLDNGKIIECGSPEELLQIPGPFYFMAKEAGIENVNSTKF

SMILES	concentration inducing statistically significant (p < 0.01) decrease in transport of LY by BCRP (BCRP [1]) [nM]	IC50 (BCRP [1]) [µM]	IC50 (MRP2; [3]) [µM]	concentration inducing statistically significant (p < 0.01) increase in ATPase activity of BCRP (BCRP [2]) [nM]	IC50 (MRP2) [µM]
O=c1c(O)c(-c2ccc(O)c(OS(=O)(=O)O)c2)oc2cc(O)cc(O)c12 [Q3′S, quercetin-3′-sulfate]	200	3.2	19.6	400	
COc1cc(-c2oc3cc(O)cc(O)c3c(=O)c2O)ccc1O [IR, isorhamnetin]	50			20	> 30
O=c1c(O)c(-c2ccc(O)c(O)c2)oc2cc(O)cc(O)c12 [Q, quercetin]	50	0.13	> 30	80	

Now from value to compound, other results behind:

concentration inducing statistically significant (p < 0.01) decrease in transport of LY by BCRP (BCRP [1]) [nM]	IC50 (BCRP [1]) [µM]	IC50 (MRP2; [3]) [µM]	concentration inducing statistically significant (p < 0.01) increase in ATPase activity of BCRP (BCRP [2]) [nM]	SMILES	IC50 (MRP2) [µM]
20000	> 30	14.9	10000	COc1cc(-c2oc3cc(O)cc(O)c3c(=O)c2OC2OC(C(=O)O)C(O)C(O)C2O)ccc1O (stereo not shown) [I3G, isorhamnetin-3-glucuronide]	
1000	13.5	24.2	50000	O=C(O)C1OC(Oc2c(-c3ccc(O)c(O)c3)oc3cc(O)cc(O)c3c2=O)C(O)C(O)C1O (stereo not shown) [Q3G, quercetin-3-glucuronide]	
